Data on six molecules can be found in US9090535B2, “Hydroxylated tricyclic compounds” (Nektar Therapeutics, priority 2010, dated 2015).

For data set [1], the system named is sodium channels (sodium current INa) in rat dorsal root ganglion (DRG) cells. As to the kind of experiment: Sodium channel assay, whole-cell patch clamp of sodium current in isolated DRG cells. The data set is classed as cell-based. From the text: The effect of compounds disclosed herein on sodium channels may be evaluated in vitro to determine their blocking properties using the whole-cell patch clamp method in isolated cardiac (human atrial myocytes) and neuronal (rat dorsal root ganglion) cells. The example below refers to a sodium channel assay using neuronal cells.
Electrophysiologic patch clamp recordings of the sodium current in isolated rat dorsal root ganglion (DRG) cells were used to measure the sodium channel blocking properties of certain compounds disclosed herein. DRG cells were isolated according to the method of Blair and Bean (J Neurosci, 22: pp. 10277-10290, 2002) and plated on treated glass coverslips. For measuring the sodium current, cells were perfused with an external solution that consists of (in mmol/L): 115 TMA chloride, 10 NaCl, 5 CsCl, 1.8 CaCl2, 1.2 MgCl2, 10 HEPES, 11 dextrose, pH adjusted to 7.4 with TMA-OH. The chemical composition of the internal solution was (in mmol/L): 115 CsF, 20 CsCl, 10 NaF, 10 HEPES, 5 EGTA; pH adjusted to 7.2 with CsOH. Currents were measured using the whole-cell variant of the patch clamp method (Crumb & Clarkson, Biophysical Journal, 57(3): 589, 1990). An Axopatch 1-B amplifier (Axon Instruments, Foster City, Calif.) was used for whole-cell voltage clamping. Creation of voltage clamp pulses and data acquisition were controlled by a PC running pClamp software (version 9.2, Axon Instruments). INa was elicited by a 40 ms pulse to −20 mV from a holding potential of −65 mV. Pacing rates of 0.1 and 3 Hz were examined. […]. Four concentrations of each test compound were added to the cell in a cumulative manner starting with the lowest test concentration. Each cell served as its own control and data are presented as % reduction of current amplitude achieved in the presence of drug. A nonlinear curve fitting routine was utilized to fit a three-parameter Hill equation to the results using MicroCal Origin, version 6.0 software. The equation was: […]
In general terms: Patch clamp records ionic current or voltage across a cell membrane.

The target in data set [2] is T1, cloned human hERG channel (Homo sapiens, UniProt Q12809).
T1 construct: expressed in transfected cells; host or cells: HEK cells
T1 sequence (Q12809 whole entry): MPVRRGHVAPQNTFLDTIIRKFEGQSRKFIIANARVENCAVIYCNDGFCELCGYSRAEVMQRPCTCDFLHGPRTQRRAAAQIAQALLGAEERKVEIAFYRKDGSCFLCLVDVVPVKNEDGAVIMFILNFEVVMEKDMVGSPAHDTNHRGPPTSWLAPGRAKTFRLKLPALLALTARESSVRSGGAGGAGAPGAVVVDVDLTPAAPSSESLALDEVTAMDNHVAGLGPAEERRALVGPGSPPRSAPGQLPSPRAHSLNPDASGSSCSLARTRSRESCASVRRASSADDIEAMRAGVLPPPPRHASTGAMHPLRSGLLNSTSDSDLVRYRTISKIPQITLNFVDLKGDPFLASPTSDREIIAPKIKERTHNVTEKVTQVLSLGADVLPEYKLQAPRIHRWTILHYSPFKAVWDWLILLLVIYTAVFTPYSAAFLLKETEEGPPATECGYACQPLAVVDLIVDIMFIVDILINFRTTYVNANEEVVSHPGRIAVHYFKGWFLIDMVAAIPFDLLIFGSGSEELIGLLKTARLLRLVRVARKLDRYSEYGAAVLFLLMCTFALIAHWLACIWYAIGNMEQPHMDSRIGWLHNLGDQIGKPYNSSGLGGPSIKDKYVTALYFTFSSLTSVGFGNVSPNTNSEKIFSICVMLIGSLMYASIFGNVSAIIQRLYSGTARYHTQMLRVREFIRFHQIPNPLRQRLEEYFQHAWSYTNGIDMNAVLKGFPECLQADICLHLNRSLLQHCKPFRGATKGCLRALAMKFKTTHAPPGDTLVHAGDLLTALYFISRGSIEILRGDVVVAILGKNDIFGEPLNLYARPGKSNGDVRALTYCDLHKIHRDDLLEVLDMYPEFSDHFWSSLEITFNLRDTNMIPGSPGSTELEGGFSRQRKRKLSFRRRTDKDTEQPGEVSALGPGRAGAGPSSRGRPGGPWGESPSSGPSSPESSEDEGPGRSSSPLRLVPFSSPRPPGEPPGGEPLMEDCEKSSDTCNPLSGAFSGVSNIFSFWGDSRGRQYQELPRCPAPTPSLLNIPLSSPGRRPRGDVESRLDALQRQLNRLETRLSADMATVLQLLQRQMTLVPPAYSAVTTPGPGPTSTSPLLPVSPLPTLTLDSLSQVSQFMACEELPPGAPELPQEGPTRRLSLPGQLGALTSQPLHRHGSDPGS
As to the kind of experiment: In vitro effect on hERG channels, whole-cell patch clamp in HEK cells. The data set is classed as cell-based. The settings on record: 37 °C, read-out: IhERG, 0.1 HZ, IC50. Here is the method:
Electrophysiological measurements of hERG current were made in vitro to assess the hERG block produced by certain compounds disclosed herein. hERG currents were measured in HEK cells expressing the cloned human hERG channel using the whole-cell variant of the patch clamp method. Experiments were performed at 37±1° C. An Axopatch 1-B amplifier (Axon Instruments, Foster City, Calif.) was used for whole-cell voltage clamping. Creation of voltage clamp pulses and data acquisition was controlled by a PC running pClamp software (version 9.2, Axon Instruments). After rupture of the cell membrane (entering whole-cell mode), current kinetics and amplitudes were allowed to stabilize for 3-5 minutes as the cell was dialyzed with internal solution and paced at 0.1 Hz. Cells were depolarized to +10 mV for 500 ms from a holding potential of −75 mV and peak hERG current was measured as the maximum outward deflection of the tail current elicited upon return to −40 mV (pacing rate=0.1 Hz). Four concentrations of each test compound were added to the cell in a cumulative manner starting with the lowest test concentration. Each cell served as its own control and data are presented as % reduction of current amplitude achieved in the presence of drug.
A nonlinear curve fitting routine was utilized to fit a three-parameter Hill equation to the results using MicroCal Origin, version 6.0 software. The equation was: […]
For orientation: The hERG channel carries a current that helps repolarise heart muscle cells.

Data set [3] deals with T2, human norepinephrine transporter (hNET) (Homo sapiens, UniProt P23975).
T2 construct: expressed in transfected cells; host or cells: MDCK cells
T2 sequence (P23975 whole entry): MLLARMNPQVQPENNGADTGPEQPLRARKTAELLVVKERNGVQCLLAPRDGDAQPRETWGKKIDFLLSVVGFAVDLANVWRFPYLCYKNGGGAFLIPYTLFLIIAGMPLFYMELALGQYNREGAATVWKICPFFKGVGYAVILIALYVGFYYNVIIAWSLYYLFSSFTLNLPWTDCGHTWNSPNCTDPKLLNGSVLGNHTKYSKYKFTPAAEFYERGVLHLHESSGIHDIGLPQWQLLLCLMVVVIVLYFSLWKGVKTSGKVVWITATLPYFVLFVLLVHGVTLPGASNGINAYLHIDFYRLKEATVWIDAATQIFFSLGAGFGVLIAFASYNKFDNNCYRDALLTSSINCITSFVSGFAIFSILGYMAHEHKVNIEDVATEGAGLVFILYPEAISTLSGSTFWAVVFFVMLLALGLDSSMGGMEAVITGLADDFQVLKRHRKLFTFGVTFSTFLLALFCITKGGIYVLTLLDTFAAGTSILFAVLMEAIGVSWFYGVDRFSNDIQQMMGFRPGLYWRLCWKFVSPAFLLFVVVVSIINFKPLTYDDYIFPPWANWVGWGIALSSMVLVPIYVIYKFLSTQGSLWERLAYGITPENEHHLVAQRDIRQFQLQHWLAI
The data set can be described thus: Binding affinity to human norepinephrine transporter (hNET), [3H]Nisoxetine displacement. The note with it: membranes from MDCK cells expressing hNET, [3H]Nisoxetine 2 nM, read-out: NET binding, Ki. The method, then: The binding affinities of certain compounds disclosed herein to the hNET were measured using competitive radioligand displacement assays in membranes prepared from MDCK cells that express the human norepinephrine transporter. Competition binding experiments were conducted by incubating hNET membranes with [^3H] Nisoxetine (2 nM), in the presence of increasing concentrations of test compounds. Incubations were carried out at 4° C. for 60 minutes in buffer containing 50 mM Tris HCl, 120 mM NaCl and 5 mM KCl (pH 7.4). The binding reaction was terminated by rapid filtration, membranes were washed and membrane-bound radioactivity was measured using a scintillation counter. Non-specific binding was measured in the presence of excess (10 μM) clomipramine as the unlabelled ligand and this value was subtracted from the total binding to yield the specific binding at each test compound concentration.
IC50 values were obtained from non-linear regression analysis of concentration-versus specific binding plots. Ki values were calculated from the IC50 values using the Cheng Prusoff correction and experimentally determined […] values for the radioligand under these assay conditions.

The structures appear in SMILES notation. Structures can show the parent of a compound that is named as a salt. Where two headings read alike, the source gives them in different places. A value given as a limit tells only on which side of the number the result lay.

The term IC50 denotes the concentration needed to halve the response being measured. Usually Ki stands for the dissociation constant of the complex between target and ligand, obtained from inhibition or displacement. Take `COCCOCCOCCOCCOCCOCCOCCOCCO[C@@H]1Cc2ccccc2/C(=C\CCN(C)C)c2ccccc21` [(R)-5-(3-dimethylamino-propylidene)-10-OmPEG8-10,11-dihydro-5H-dibenzo[a,d]cyclohept-E-ene trifluoroacetate salt]: the IC50 came out at 21.2 µM in data set [1] (Table 2, pacing rate 3 Hz) and 55.9 µM in data set [2] (Table 2, pacing rate 0.1 Hz). The Ki in data set [3] (Table 2) was 13.5 µM.
The like results for `CN(C)CC/C=C1\c2ccccc2C[C@H](O)c2ccccc21` [(S)-5-(3-Dimethylamino-propylidene)-10,11-dihydro-5H-dibenzo[a,d]cyclohept-E-en-10-ol, reference compound] were, in that order, 16.6 µM, 23.2 µM and 0.34 µM.
The like results for `COCCOCCOCCOCCO[C@H]1Cc2ccccc2/C(=C\CCN(C)C)c2ccccc21` [(S)-5-(3-dimethylamino-propylidene)-10-OmPEG4-10,11-dihydro-5H-dibenzo[a,d]cyclohept-E-ene trifluoroacetate salt] were, in that order, 39.4 µM, 24.8 µM and 12.6 µM.
Consider `COCCOCCOCCOCCOCCOCCO[C@H]1Cc2ccccc2/C(=C\CCN(C)C)c2ccccc21` [(S)-5-(3-dimethylamino-propylidene)-10-OmPEG6-10,11-dihydro-5H-dibenzo[a,d]cyclohept-E-ene trifluoroacetate salt], for which the IC50 in data set [1] (Table 2, pacing rate 3 Hz) was 8.5 µM; in data set [2] (Table 2, pacing rate 0.1 Hz) it was 36 µM. In data set [3] (Table 2), the Ki was found to be 14.2 µM.
The like results for `COCCOCCOCCOCCOCCOCCOCCOCCO[C@H]1Cc2ccccc2/C(=C\CCN(C)C)c2ccccc21` [(S)-5-(3-dimethylamino-propylidene)-10-OmPEG8-10,11-dihydro-5H-dibenzo[a,d]cyclohept-E-ene trifluoroacetate salt] were, in that order, 71.6 µM, more than 100 µM and 14 µM.
As to `CN(C)CC/C=C1/c2ccccc2CCc2cc(O)ccc21` [(Z)-5-(3-(dimethylamino)propylidene)-10,11-dihydro-5H-dibenzo[a,d][7]annulen-2-ol, reference compound], the IC50 in data set [1] (Table 1, pacing rate 3 Hz) came to 14.9 µM; in data set [2] (Table 1, pacing rate 0.1 Hz) it was 1.6 µM. The Ki in data set [3] (Table 1) came to 0.5 µM.
